# Measurements taken from patent publication US20160324884A1, “TREATMENT OF DIABETES WITH PENTACYCLIC TRITERPENOID SAPONIN COMPOUNDS FROM SZECHUAN MELANDIUM ROOT” (priority 2013, published 2016).
# Key:
# Format in all cases: in vivo
# KK^Ay mice [1] = test: Effects of Wacao saponins on glycemia in KK^Ay T2DM mice (Example 2)
# From the text: (§1) 80 male KK^Ay mice (12 weeks of age, License NO. SCXK (BJ) 2009-0015, Beijing Huafukang Biology Technology Co. Ltd.) and 10 male normal C57BL/6 mice (12 weeks of age, License NO. SCXK (BJ) 2009-0015, Beijing Huafukang Biology Technology Co. Ltd.) were adaptively bred for one week, and then used in the pharmacological experiment.
# The animals were housed individually in wood-chip-bedded plastic cages. Germ-free and high-fat diets (Beijing Huafukang Biology Technology Co. Ltd.) were used to feed the KK^Ay mice, and the standard laboratory chows were used to feed normal C57BL/6 mice. All the animals had free access to food and water.
# 80 KK^Ay mice were adaptively bred for 1 week, and then randomly assigned into 8 groups: Model group, Compound (1) group, Compound (2) group, Compound (3) group, Compound (4) group, Compound (7) group, Compound (8) group and metformin group, 10 mice per group. 10 normal C57BL/6 mice were used as the control group. KK^Ay mice were fed with the high-fat diet, and the control group was fed with the normal control diet. The control and model groups were hypodermically injected with sterile water, 6 medicated groups were hypodermically injected with 6 kinds of Wacao saponins, the Compounds (1), (2), (3), (4), (7) and (8), and the positive group (metformin group) was irrigated per oral. All groups were administrated at 9 am for 2 weeks. The administrating volume is 10 ml/kg BW and the administration dosage is shown in Table3.
# All mice of the fasting tail blood glucose level were measured weekly using One Touch ULTRA Glucometer (Life Scan Johnson and Johnson, USA).
# Each compound of Wacao saponins was dissolved into sterile water and sterilized with filtration for Sc. The metformin was dissolved into sterile water for lg. The control and model group mice were injected with sterile water, Sc. All the animals were treated at 9 am for 2 weeks.
# Overnight fasting tail blood glucose level was measured weekly using One Touch ULTRA Glucometer and measured for twice.
# Each group was administrated for 2 weeks (14 days) and then the experiment was terminated.
# Results are expressed as means±SD. Statistical analysis were analyzed by using SPSS 10.0 software. Data were evaluated with analysis of variance.
# KK^Ay mice [2] = test: Body weight, food and water intake in KK^Ay mice (Example 3); settings: vs model group
# From the text: as §1, with “60” for “80”, “10 normal” for “10”, “male” for “male normal”, “following” for “pharmacological”
# The animals were housed individually in wood-chip-bedded plastic cages. Germ-free and high-fat diets (Beijing Huafukang Biology Technology Co. Ltd.) were used to feed the KK^Ay mice. All the animals had free access to food and water.
# (§2) 60 KK^Ay mice were adaptively bred for 1 week, and then randomly assigned into 6 groups: Model group, Compound (1) group, Compound (2) group, Compound (3) group, Compound (4) group, and metformin group, 10 mice per group. 10 normal C57BL/6 mice were used for the control group. KK^Ay mice were in a high-fat diet, and the control normal mice were in a normal control diet. The control and model groups were hypodermically injected with sterile water, the 6 medicated groups mice were subcutaneously injected with […] Wacao saponins, (Compounds (1), (2), (3) and (4)) respectively, and the positive group was administered metformin by gavage. All mice were administrated at 9 am for 2 weeks and the administration volume is 10 ml/kg BW.
# (§3) The body weight, food and water intake of each mouse was measured and recorded weekly throughout the course of the experiment. At the end of the experiment, collected the blood and separated serum, fasting blood glucose, insulin levels and insulin sensitivity index (ISI) were measured or calculated in each group. Liver, skeletal muscles of mice in each group were taken and weighed for detecting glycogen levels of the hepatic and muscles after mice being killed.
# (§4) Compound (1), (2), (3) and (4) were respectively dissolved into sterile water, and sterilized with filtration for Sc. to the medication groups. The metformin was dissolved into sterile water for lg. to the positive control group. Control and model groups animals were injected with sterile water (10 ml/kg BW), Sc. All the animals were treated daily at 9 am for 2 weeks (14 days).
# Measurement of food and water intake: 24 hours' food and water intake were measured by gravimetry once a week. It should be paid attention to recycling leakage of small forage into the feed box to ensure the accuracy of food intake.
# Determination of body weight: The body weight of mice was measured and recorded once a week.
# Results are shown as means±SD. Statistical analysis data were analyzed by using SPSS 10.0 software. Data were evaluated with analysis of variance.
# KK^Ay mice [3] = test: Glycemia in KK^Ay mice during treatment and after withdrawal (Example 3)
# From the text: as §1, with “60” for “80”, “10 normal” for “10”, “male” for “male normal”, “following” for “pharmacological”
# as §2, §4
# (§5) Blood detection: Blood glucose was measured weekly. Overnight fasting glycemia level was measured with One Touch ULTRA Glucometer for the tail blood test. At the end of the experiment, blood serum was collected for measuring levels of fasting blood glucose and insulin, and the insulin sensitivity index (ISI) was calculated. At the same time, hepatic tissues and skeletal muscles of mice were taken out to determine levels of hepatic and muscle glycogen by detection kits.
# Termination of the experiment After administrating mice for 2 weeks (14 days), the experiment was terminated.
# This experiment is to observe the anti-hyperglycemia effects of Wacao saponins on KK^Ay mice during and after the period of drug treatment, respectively.
# KK^Ay mice [4] = test: Blood insulin content and insulin sensitivity index (ISI) in KK^Ay mice (Example 3); settings: serum, after 2 weeks treatment, vs model group
# From the text: as §2
# as §3, with “Liver, skeletal muscles of mice in each group were taken and weighed for detecting glycogen levels of the hepatic and muscles after mice being killed.” left out
# as §5, with “At the same time, hepatic tissues and skeletal muscles of mice were taken out to determine levels of hepatic and muscle glycogen by detection kits.” left out
# KK^Ay mice [5] = test: Hepatic and muscle glycogen in KK^Ay mice (Example 3); settings: 2.0 mg/kg Sc, after 2 weeks, vs model group
# From the text: as §2, §3, §4, §5
structure (smiles),measurement,setting,value
"COC(=O)C1OC(O[C@H]2CC[C@]3(C)[C@H]4C=CC5[C@@H]6CC(C)(C)CC[C@]6(C(=O)OC6OC(C)C(OC(=O)/C=C\c7ccc(C)cc7)C(OC(C)=O)C6OC6OC(C)C(O)C(O)C6O)[C@H](O)C[C@@]5(C)[C@]4(C)CC[C@H]3[C@]2(C)C=O)C(OC2OC(CO)C(O)C(O)C2O)C(OC2OCC(O)C(O)C2O)C1O (stereo partly drawn) [Compound (4), sinocrassuloside IX]","glycemia (fasting tail blood glucose), hypoglycemic activity","KK^Ay mice [1]; 2.0 mg/kg BW Sc daily, after 1 week, vs model group","then followed by Compound (2), Compound (4), Compound (3) and Compound (7)"
same,"anti-hyperglycemia effect, compounds compared with each other","KK^Ay mice [1]; 2.0 mg/kg BW Sc, 2 weeks, ranking","followed by Compound (3) and (4) (cis-trans-isomers), and Compound (7)"
same,food intake,"KK^Ay mice [2]; after 2 weeks, compounds 2.0 mg/kg Sc, metformin 500 mg/kg lg","except the Compound (4) group, mice in all groups showed obvious reduction in food intake"
same,water intake,"KK^Ay mice [2]; week 1, 2.0 mg/kg Sc","decreased significantly (p<0.05 or p<0.01, vs. model group), except Compound (4) group in week 1"
same,anti-hyperglycemia effect compared with metformin,"KK^Ay mice [3]; KK^Ay mice, 2.0 mg/kg Sc vs metformin 500 mg/kg lg",all treatment groups except Compound (4) had stronger anti-hyperglycemia effects than that of metformin
same,glycemia level,"KK^Ay mice [3]; KK^Ay mice, after 1 week, compounds 2.0 mg/kg Sc, metformin 500 mg/kg lg, vs model group","each treatment group, except the Compound (4) group, showed a significantly decrease"
same,descending rates of blood glucose,"KK^Ay mice [3]; T2DM mice, 2 mg/kg, two weeks after subcutaneous injection",50%
same,insulin level,KK^Ay mice [4],all groups except Compound (4) increased significantly
same,muscle glycogen level,KK^Ay mice [5],weaker efficacy in raising level of muscle glycogen which had no statistical significant difference compared with that of the model group
